The results in this text go back to patent US20250320227A1, “MACROCYCLIC OREXIN RECEPTOR AGONISTS AND USES THEREOF” (Jazz Pharmaceuticals Ireland Limited, priority 2022, published 2025).

The target of this experiment is T1, human recombinant OX2 (hOX2) receptors expressed in CHO cells (Homo sapiens, UniProt O43614).
T1 construct: host or cells: CHO cells (hOX2-CHO)
T1 sequence (O43614 1-444): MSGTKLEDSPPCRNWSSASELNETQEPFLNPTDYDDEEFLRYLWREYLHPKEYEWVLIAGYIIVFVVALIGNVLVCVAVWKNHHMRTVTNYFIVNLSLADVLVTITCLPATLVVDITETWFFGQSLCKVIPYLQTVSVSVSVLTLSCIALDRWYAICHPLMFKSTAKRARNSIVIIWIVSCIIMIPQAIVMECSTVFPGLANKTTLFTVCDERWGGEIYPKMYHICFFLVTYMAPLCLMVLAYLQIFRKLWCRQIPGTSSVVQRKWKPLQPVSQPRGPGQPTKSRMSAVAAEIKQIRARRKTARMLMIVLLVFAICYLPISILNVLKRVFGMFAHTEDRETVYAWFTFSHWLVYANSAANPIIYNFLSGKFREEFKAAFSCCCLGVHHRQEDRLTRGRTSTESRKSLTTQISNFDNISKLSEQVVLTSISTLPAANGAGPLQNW
The experiment can be described thus: IP-1 accumulation assay (IP-One HTRF) in hOX2-CHO cells. In kind it is cell-based. Particulars: 60 min incubation at 37° C., mean of at least two independent experiments, read-out: EC50_OX2R Category. As for the experimental part:
The accumulation of Inositol-1 Monophosphate (IP-1) was measured using IP-One HTRF® Terbium cryptate based assay (Cisbio) in human recombinant OX1 (hOX1) and at OX2 (hOX2) receptors expressed in CHO cells (DiscoverX) according to the manufacturer's instructions for cells tested in suspension.
hOX1-CHO and hOX2-CHO cells were seeded into white 384-well plates at a density of 20,000 cells/well in Hank's Balanced Salt Solution (HBSS) containing 20 mM HEPES pH 7.4, 50 mM, LiCl and 0.1% and Bovine Serum Albumin (BSA).
Compounds of disclosure were tested in an 11 points concentration response curve (CRC) serially diluted in neat DMSO at 200 fold concentrations and added by Echo acoustic liquid handling (Labcyte) to the cells (0.5% DMSO final in the assay). After 60 min of incubation at 37° C. detection reagents, IP1-d2 tracer and anti-IP1-cryptate were diluted in lysis buffer according to the manufacturer's descriptions and added to the cells.
Following 60 min incubation at room temperature, time-resolved fluorescence (HTRF) was measured at 615 nm and 665 nm by Envision Multilabel reader (Perkin Elmer) and the HTRF ratio (A665/A615×10^4) was calculated.
The IP-1 accumulation response was expressed as percentage of the maximal OX-A response.
Curve fitting and EC50 estimations were carried out using a four-parameter logistic model using XLfit Software. Mean data of EC50 are calculated from at least two independent experiments performed in duplicates
(Time-resolved FRET reads energy transfer from a long-lived donor to a nearby acceptor.)

For the compound `C[C@@H]1C[C@]2(COCC(=O)N2)[C@H]2CO[C@H]3CC[C@H](CC3)c3cc(F)ccc3OCC(=O)N12` (single isomer, unassigned) [Example 18b], the EC50 was above 10000 nM. Regarding `C[C@@H]1C[C@@]2(COCC(=O)N2)[C@@H]2CO[C@H]3CC[C@H](CC3)c3ccc(F)cc3OCC(=O)N12` (single isomer, unassigned) [Example 19a], the EC50 is below 100 nM. For the compound `C[C@@H]1C[C@@]2(COCC(=O)N2)[C@@H]2CO[C@H]3CC[C@H](CC3)c3cccc(Cl)c3OCC(=O)N12` (single isomer, unassigned) [Example 20a], the EC50 lay in the range of 1000 to 10000 nM.

On to `C[C@@H]1C[C@]2(COCC(=O)N2)[C@H]2CO[C@H]3CC[C@H](CC3)c3cccc(Cl)c3OCC(=O)N12` (single isomer, unassigned) [Example 20b], for which the EC50 is above 10000 nM. In the case of `C[C@@H]1C[C@@]2(COCC(=O)N2)[C@@H]2CO[C@H]3CC[C@H](CC3)c3cc(Cl)ccc3OCC(=O)N12` (single isomer, unassigned) [Example 21a], the EC50 is 100 to 1000 nM. The value for `C[C@@H]1C[C@]2(COCC(=O)N2)[C@H]2CO[C@H]3CC[C@H](CC3)c3cc(Cl)ccc3OCC(=O)N12` (single isomer, unassigned) [Example 21b] was above 10000 nM. Consider `Cc1ccc2c(c1)[C@H]1CC[C@H](CC1)OC[C@@H]1N(C(=O)CO2)[C@H](C)C[C@@]12COCC(=O)N2` (single isomer, unassigned) [Example 22a], for which the EC50 is below 100 nM. In the case of `Cc1ccc2c(c1)[C@H]1CC[C@H](CC1)OC[C@H]1N(C(=O)CO2)[C@H](C)C[C@]12COCC(=O)N2` (single isomer, unassigned) [Example 22b] it was above 10000 nM; in that of `C[C@@H]1C[C@@]2(COCC(=O)N2)[C@@H]2CO[C@H]3CC[C@H](CC3)c3cccnc3OCC(=O)N12` (single isomer, unassigned) [Example 23a], 100 to 1000 nM; in that of `C[C@@H]1C[C@]2(COCC(=O)N2)[C@H]2CO[C@H]3CC[C@H](CC3)c3cccnc3OCC(=O)N12` (single isomer, unassigned) [Example 23b], 1000 to 10000 nM. As for `C[C@@H]1C[C@]2(COCC(=O)N2)[C@H]2CO[C@H]3CC[C@H](CC3)c3cccc(F)c3OCCC(=O)N12` (single isomer, unassigned) [Example 24b], the EC50 lay in the range of 100 to 1000 nM. With `O=C1COC[C@@]2(CCCN3C(=O)COc4ccccc4[C@H]4CC[C@H](CC4)OC[C@H]32)N1` (single isomer, unassigned) [Example 32a], the EC50 is below 100 nM. With `O=C1COC[C@]2(CCCN3C(=O)COc4ccccc4[C@H]4CC[C@H](CC4)OC[C@@H]32)N1` (single isomer, unassigned) [Example 32b], the EC50 was above 10000 nM. For the compound `O=C1COC[C@@]2(CCCN3C(=O)CCOc4ccccc4[C@H]4CC[C@H](CC4)OC[C@H]32)N1` (single isomer, unassigned) [Example 33a], the EC50 was below 100 nM. In the case of `O=C1COC[C@]2(CCCN3C(=O)CCOc4ccccc4[C@H]4CC[C@H](CC4)OC[C@@H]32)N1` (single isomer, unassigned) [Example 33b], the EC50 lay within 100 to 1000 nM. Turning to `CC1Oc2ccccc2[C@H]2CC[C@H](CC2)OC[C@@H]2N(CCC[C@@]23COCC(=O)N3)C1=O` (single isomer, unassigned) [Example 35a], the EC50 is below 100 nM. Consider `CC1Oc2ccccc2[C@H]2CC[C@H](CC2)OC[C@H]2N(CCC[C@]23COCC(=O)N3)C1=O` (single isomer, unassigned) [Example 35b], for which the EC50 was above 10000 nM.

As for `O=C1COC[C@@]2(CCCN3C(=O)C4(CC4)COc4ccccc4[C@H]4CC[C@H](CC4)OC[C@H]32)N1` (single isomer, unassigned) [Example 37a, (1′s,16′S,17′R,20′s)-dispiro[cyclopropane-1,10′-[8,19]dioxa-[12]azatetracyclo[18.2.2.0^2,70.0^12,17]tetracosane-16′,3″-morpholine]-2′(7′),3′,5′-triene-5″,11′-dione], the EC50 was below 100 nM. As for `O=C1COC[C@]2(CCCN3C(=O)C4(CC4)COc4ccccc4[C@H]4CC[C@H](CC4)OC[C@@H]32)N1` (single isomer, unassigned) [Example 37b, (1′s,16′R,17′S,20′s)-dispiro[cyclopropane-1,10′-[8,19]dioxa-[12]azatetracyclo[18.2.2.0^2,70.0^12,17]tetracosane-16′,3″-morpholine]-2′(7′),3′,5′-triene-5″,11′-dione], the EC50 lay within 1000 to 10000 nM. In the case of `O=C1COC[C@@]2(CCCN3C(=O)COc4c(F)cccc4[C@H]4CC[C@H](CC4)OC[C@H]32)N1` (single isomer, unassigned) [Example 38a], the EC50 is below 100 nM. As for `O=C1COC[C@]2(CCCN3C(=O)COc4c(F)cccc4[C@H]4CC[C@H](CC4)OC[C@@H]32)N1` (single isomer, unassigned) [Example 38b], the EC50 is 1000 to 10000 nM. On to `O=C1COC[C@@]2(CCCN3C(=O)COc4c(F)cc(F)cc4[C@H]4CC[C@H](CC4)OC[C@H]32)N1` (single isomer, unassigned) [Example 39a], for which the EC50 was above 10000 nM. `O=C1COC[C@]2(CCCN3C(=O)COc4c(F)cc(F)cc4[C@H]4CC[C@H](CC4)OC[C@@H]32)N1` (single isomer, unassigned) [Example 39b]: the EC50 is below 100 nM. Take `O=C1COC[C@@]2(CCCN3C(=O)COc4cccc(F)c4[C@H]4CC[C@H](CC4)OC[C@H]32)N1` (single isomer, unassigned) [Example 40a]: the EC50 is below 100 nM. In the case of `O=C1COC[C@]2(CCCN3C(=O)COc4cccc(F)c4[C@H]4CC[C@H](CC4)OC[C@@H]32)N1` (single isomer, unassigned) [Example 40b], the EC50 fell in the range of 1000 to 10000 nM. Regarding `O=C1COC[C@@]2(CCCN3C(=O)COc4ccc(F)cc4[C@H]4CC[C@H](CC4)OC[C@H]32)N1` (single isomer, unassigned) [Example 41a], the EC50 is below 100 nM.

For `O=C1COC[C@]2(CCCN3C(=O)COc4ccc(F)cc4[C@H]4CC[C@H](CC4)OC[C@@H]32)N1` (single isomer, unassigned) [Example 41b], the EC50 was in the range of 1000 to 10000 nM. For the compound `O=C1COC[C@@]2(CCCN3C(=O)COc4cc(F)cc(F)c4[C@H]4CC[C@H](CC4)OC[C@H]32)N1` (single isomer, unassigned) [Example 42a], the EC50 is below 100 nM. For the compound `O=C1COC[C@]2(CCCN3C(=O)COc4cc(F)cc(F)c4[C@H]4CC[C@H](CC4)OC[C@@H]32)N1` (single isomer, unassigned) [Example 42b], the EC50 fell in the range of 100 to 1000 nM. The value for `O=C1COC[C@@]2(CCCN3C(=O)COc4ccc(F)c(F)c4[C@H]4CC[C@H](CC4)OC[C@H]32)N1` (single isomer, unassigned) [Example 43a] was below 100 nM.

`O=C1COC[C@]2(CCCN3C(=O)COc4ccc(F)c(F)c4[C@H]4CC[C@H](CC4)OC[C@@H]32)N1` (single isomer, unassigned) [Example 43b]: the EC50 was above 10000 nM. In the case of `O=C1COC[C@@]2(CCCN3C(=O)COc4c(F)ccc(F)c4[C@H]4CC[C@H](CC4)OC[C@H]32)N1` (single isomer, unassigned) [Example 44a], the EC50 was below 100 nM.

As to `O=C1COC[C@]2(CCCN3C(=O)COc4c(F)ccc(F)c4[C@H]4CC[C@H](CC4)OC[C@@H]32)N1` (single isomer, unassigned) [Example 44b], the EC50 was above 10000 nM. Take `O=C1COC[C@@]2(CCCN3C(=O)COc4ncccc4[C@H]4CC[C@H](CC4)OC[C@H]32)N1` (single isomer, unassigned) [Example 45a]: the EC50 was below 100 nM. The value for `O=C1COC[C@@]2(CCCN3C(=O)COc4nccc(F)c4[C@H]4CC[C@H](CC4)OC[C@H]32)N1` (single isomer, unassigned) [Example 46a] was below 100 nM. For `O=C1COC[C@]2(CCCN3C(=O)COc4nccc(F)c4[C@H]4CC[C@H](CC4)OC[C@@H]32)N1` (single isomer, unassigned) [Example 46b], the EC50 lay within 1000 to 10000 nM.

With `Cc1cccc2c1[C@H]1CC[C@H](CC1)OC[C@@H]1N(CCC[C@@]13COCC(=O)N3)C(=O)CO2` (single isomer, unassigned) [Example 47a], the EC50 was below 100 nM. For the compound `Cc1cccc2c1[C@H]1CC[C@H](CC1)OC[C@H]1N(CCC[C@]13COCC(=O)N3)C(=O)CO2` (single isomer, unassigned) [Example 47b], the EC50 lay within 1000 to 10000 nM. As for `O=C1COC[C@@]2(CCCN3C(=O)CCOc4c(F)cccc4[C@H]4CC[C@H](CC4)OC[C@H]32)N1` (single isomer, unassigned) [Example 48a], the EC50 is below 100 nM.
